Source: patent US9284291B2, “Kappa opioid receptor compounds” (MediSynergies, LLC, priority 2014, dated 2016)
pKi: −log10 of the molar value.

How the values were obtained:
Format in all cases: binding
Kappa opioid receptor = Kappa opioid receptor (Homo sapiens, UniProt P41145); assay: Opioid receptor affinity, NIMH PDSP screen, Kappa subtype
Description: (§1) The compound of Example 7 was tested for activity vs. opioid receptor subtypes, at an initial concentration of 10 μM, through the NIMH Psychoactive Drug Screening Program (PDSP), operated by Dr. Bryan Roth and his colleagues in the Department of Pharmacology at the University of North Carolina (Chapel Hill, N.C.) through an agreement with the National Institute of Mental Health (NIMH).

Mu opioid receptor = Mu opioid receptor (Homo sapiens, UniProt P35372); assay: Opioid receptor affinity, NIMH PDSP screen, Mu subtype
Chain of Mu opioid receptor (P35372 whole entry, species assumed): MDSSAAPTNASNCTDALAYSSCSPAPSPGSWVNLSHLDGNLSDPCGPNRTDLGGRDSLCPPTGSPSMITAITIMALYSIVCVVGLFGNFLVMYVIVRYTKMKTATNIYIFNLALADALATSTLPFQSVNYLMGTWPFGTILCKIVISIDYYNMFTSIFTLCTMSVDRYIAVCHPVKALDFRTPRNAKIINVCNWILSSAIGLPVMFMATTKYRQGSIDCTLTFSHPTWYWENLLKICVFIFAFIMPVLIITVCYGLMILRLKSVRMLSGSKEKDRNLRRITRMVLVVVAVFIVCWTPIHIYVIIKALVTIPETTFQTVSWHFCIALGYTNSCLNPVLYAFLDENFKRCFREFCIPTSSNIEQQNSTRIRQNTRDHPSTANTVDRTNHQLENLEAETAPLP
Description: as §1

Delta opioid receptor = Delta opioid receptor (Homo sapiens, UniProt P41143); assay: Opioid receptor affinity, NIMH PDSP screen, Delta subtype
Chain of Delta opioid receptor (P41143 whole entry): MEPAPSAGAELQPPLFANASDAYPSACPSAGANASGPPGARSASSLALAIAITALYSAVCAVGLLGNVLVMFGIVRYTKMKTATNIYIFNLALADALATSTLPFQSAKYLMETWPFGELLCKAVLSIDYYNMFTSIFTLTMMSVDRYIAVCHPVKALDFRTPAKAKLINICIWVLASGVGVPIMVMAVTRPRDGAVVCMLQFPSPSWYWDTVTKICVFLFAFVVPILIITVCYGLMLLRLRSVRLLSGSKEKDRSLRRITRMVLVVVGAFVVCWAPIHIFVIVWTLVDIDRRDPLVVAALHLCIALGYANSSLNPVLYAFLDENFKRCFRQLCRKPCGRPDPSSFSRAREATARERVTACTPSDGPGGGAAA
Description: as §1

Chain of Kappa opioid receptor (P41145 whole entry): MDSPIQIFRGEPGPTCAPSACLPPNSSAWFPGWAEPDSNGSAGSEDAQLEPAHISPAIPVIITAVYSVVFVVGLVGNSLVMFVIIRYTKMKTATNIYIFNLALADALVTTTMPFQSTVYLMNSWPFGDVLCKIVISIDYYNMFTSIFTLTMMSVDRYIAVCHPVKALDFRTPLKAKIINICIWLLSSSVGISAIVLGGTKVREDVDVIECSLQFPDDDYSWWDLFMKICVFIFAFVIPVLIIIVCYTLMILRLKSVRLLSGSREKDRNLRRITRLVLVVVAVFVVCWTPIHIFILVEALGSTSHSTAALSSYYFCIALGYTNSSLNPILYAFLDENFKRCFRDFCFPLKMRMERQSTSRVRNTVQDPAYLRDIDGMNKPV

pKi (Kappa opioid receptor): 7.33 | inhibition at 10 µM (Kappa opioid receptor; 10 μM): 100% | inhibition at 10 µM (Mu opioid receptor): 39.1% | inhibition at 10 µM (Delta opioid receptor): 23.5%
Structure (SMILES): CN(C)CCCC1(c2ccc(F)cc2)OCc2cc(-c3ncc[nH]3)ccc21 (stereo not shown) [Example 7]
